What is called clearance is the volume of plasma or blood freed of the substance per unit of time. Higher therefore signals efficient removal.

This note sets out measurements from ChEMBL document CHEMBL1155838, “Biphenyl amide p38 kinase inhibitors 3: Improvement of cellular and in vivo activity” (Bioorg Med Chem Lett, 2008).

Format in all cases: ADME, organism-based
The nature of data set [1]: Oral bioavailability in Lewis rat at […]. Particulars: in vivo.
Data set [2] can be described thus: Volume of distribution at steady state in Lewis rat at 0.5 mg/kg, iv. The arrangement: dose 0.5 mg/kg, route intravenous. The note with it: in vivo, read-out: Vdss.
The nature of data set [3]: Terminal half life in Lewis rat plasma at 0.5 mg/kg, iv. The arrangement: dose 0.5 mg/kg, route intravenous. Particulars: read-out: beta t1/2 (converted).
A short description of data set [4]: Clearance in Lewis rat plasma at 0.5 mg/kg, iv. The arrangement: dose 0.5 mg/kg, route intravenous.

`Cc1ccc(C(=O)NC2CC2)cc1-c1ccc(C(=O)NCC2CC2)cc1`: in data set [1], the bioavailability amounted to 113%. Besides, the Vd in data set [2] was determined as 0.6 L/kg. Moreover, the half-life in data set [3] is 1.3 h. Also, the clearance in data set [4] came to 6 mL/min/kg.
